Test results as given in patent US11001808B2, “Immortalization of epithelial cells and methods of use” (Georgetown University, priority 2010, dated 2021).
Entries after “also recorded” stand apart in the source; their conditions may differ.

Legend:
[1] = test system: HPV-11-containing tumor cells from the patient; assay: Cell viability curves (CellTiter-Glo Luminescent Cell Viability Assay), patient's cultured tumor cells; type: cell-based, human; details: for sensitivity of tumor cells compared with normal lung cells: tumor versus normal lung cells of the same patient, 24 hours
Experimental: (§1) Normal and tumor cells were treated with Cidofovir, Vorinostat or DHA at indicated concentration for 24 hours. Cell viabilities were measured using CellTiter-Glo® Luminescent Cell Viability Assay (Promega)
(§2) There is no data in the literature, however, analyzing the effect of these inhibitors on cells containing low-risk HPVs, because there are no cell lines established that contain HPV-6 or HPV-11. […] More importantly, this cell line was used to evaluate the sensitivity to the above inhibitors and to compare it to the sensitivity of normal lung cells isolated from the same patient (FIG. 17).
(§3) Cidovovir is the most common drug used for treating RRP.

[2] = test system: recurrent papillomatosis of the larynx; details: patient history: interferon 1996-2010, Methotrexate 2001-03, intralesional Cidofovir 2007-2010, intralesional Avastin 2010; cited from earlier work
human prostate cells = assay: Proliferation in serum-containing F medium with Rho-Rock-Myosin pathway inhibitors, Crystal Violet staining (FIG. 23); type: cell-based; details: about 5000 cells in 6-well plates, 8 days, Y-27632 5 μM, HA-1100 20 μM, GSK429286 0.1 μM, Fasudil 30 μM, C3 transferase 2 μg/ml, Blebbistatin 5 μM
Experimental: FIG. 23 depicts that inhibition of the Rho-Rock-Myosin pathway prevents cells from terminally differentiating, allowing the cells to proliferate in serum-containing medium. Normally, serum-containing medium induces terminal differentiation of primary epithelial cells and, in turn, causes senescence in culture. Approximately 5000 human prostate cells were plated in 6-well plates in F medium with addition of Rock inhibitors Y-27632 (5 μM), HA-1100 (20 μM), GSK429286 (0.1 μM), Fasudil (30 μM), a Rho inhibitor (C3 transferase, 2 μg/ml), or a Mysin inihibitor (-Blebbistatin, 5 μM). Eight days later, cells were fixed and stained with 0.05% Crystal Violet.
As used herein, inhibiting ROCK can mean to reduce the activity, function or expression of at least one of ROCK1 or ROCK2. […] In general, ROCK phosphorylates LIM kinase and myosin light chain (MLC) phosphatase after being activated through binding of GTP-bound Rho. One embodiment of the present invention thus involves blocking the upstream pathway of ROCK1 and/or ROCK2, for example GTP-bound Rho, such that ROCK1 and/or ROCK2 is not activated or its activity is reduced over untreated cells. Other upstream effectors include but are not limited to, integrins, growth factor receptors, including but not limited to, TGF-beta and EGFR, cadherins, G protein coupled receptors and the like. Another embodiment of the present invention thus involves blocking the activity, function or expression of downstream effector molecules of activated ROCK1 and/or ROCK2 such that ROCK1 and/or ROCK2 can not propagate any signal or can only propagate a reduced signal over untreated cells. Downstream effectors include but are not limited to, Myosin phosphatase-targeting protein (MYPT), vimentin, LIMK, Myosin light chain kinase, NHE1, cofilin, Myosin II and the like. […] Upstream or downstream inhibition of ROCK, in place of direct ROCK inhibition and in conjunction with the other culture conditions described and required herein, may or may not generate conditionally immortalized NKE cells.

[3] = test system: cervical cancer cells that express the high-risk HPVs; details: previous studies; cited from earlier work
airway epithelial cells = details: Moore et al., 2004; cited from earlier work
normal lung cells = assay: Cell viability curves (CellTiter-Glo Luminescent Cell Viability Assay), normal cells of the same patient; details: treated 24 hours, cell type of the LD50 not stated, taken as normal lung cells from context
Experimental: as §1, §2, §3

[4] = test system: recurrent respiratory papillomatosis; assay: Vorinostat therapy of the patient, follow-up by CT scan; type: in vivo, human; details: one patient, 400 mg/daily, 4 week cycle (3 weeks on, 1 week off)
Text: A patient with recurrent papillomatosis of the larynx for 16 years was chosen for this study. The disease progressively involved not only the larynx, but had spread to the upper airway (trachea and bronchi) and recently into the lung parenchyma. The patient had had more than 350 surgeries. Besides surgeries, multiple treatments had failed, including interferon treatment (1996-2010), Methotrexate (2001-03), intralesional Cidofovir (2007-2010), and intralesional Avastin (2010). […] By October 2010, the size each lung lesion examined was increasing. During the last surgical intervention, a wedge resection of the right upper lobe was performed to remove metastatic tumor. […] Koilocytotic changes in such tumors are an indication that the tumor is producing infectious HPV. However, at the time of intervention, the type of HPV involved in this tumor had not been identified. Since the tumor had not responded to several different treatment modalities, it was also unclear how the patient would be treated following surgery.
Based on the in vitro sensitivity data, the patient was placed on Vorinostat therapy in January of 2011. The therapy consisted 4 week cycle (3 weeks on, 1 week off) of Vorinostat at 400 mg/daily. […] Thus, the use of the cell culture methods of the present invention were critical in determining a response profile of the abnormal cells, which enabled the identification of at least two chemotherapeutic agents that might be useful for treating this patient's tumors. Using the cell culture methods of the present invention, the response profile, including the genetic analysis and the therapeutic index, was generated within one week of biopsy.

[5] = test system: human primary prostate cells; assay: In vitro growth curves under various growth conditions (FIG. 2A); type: cell-based
Experimental: (§4) FIGS. 2A-2B depict in vitro growth curves of human primary prostate cells and human primary mammary cells under various growth conditions. (A) PrEGM is a synthetic commercial prostate epithelial cell growth medium; (B) MEGM is a synthetic commercial mammary epithelial cell medium; Feeders are J2 mouse fibroblasts that have been irradiated or treated with mitomycin C; ROCK inhibitor is Y27632 at a concentration of 10 μM that was applied to the cells at initial plating and thereafter. The y-axis is population doublings and the x-axis is number of days. Media was changed every 3 days for all groups.
(§5) Primary HMECs and HPECs were grown under the four different conditions noted in FIG. 2. […] Feeders were the J2 mouse fibroblasts that have been gamma irradiated. The ROCK inhibitor was Y27632 at a concentration of 10 μM that was applied to the cells at initial plating and thereafter. The y-axis is population doublings and the x-axis is number of days. Media was changed every 2-3 days for all groups.
(§6) Cells grown in the presence of the feeder cells in F medium without ROCK inhibitor had about the same growth rate, i.e., the slope of the lines was about the same, but the cells grown in the presence of feeder cells eventually stopped growing.

[6] = test system: human primary mammary cells; assay: In vitro growth curves under various growth conditions (FIG. 2B); type: cell-based
Experimental: as §4, §5, §6

[7] = F medium, irradiated J2 feeders, 10 μM from initial plating

Nc1ccn(C[C@@H](CO)OCP(=O)(O)O)c(=O)n1 [Cidofovir]
effect on cell viability in vitro ([1]; very high concentrations (50-200 μM), 24 hours (FIG. 17A)): completely ineffective | outcome of earlier treatment [2]: failed

Avastin: intralesional Avastin, earlier treatment of the patient
outcome of earlier treatment [2]: failed

C3 transferase
suppression of serum-induced differentiation / proliferation in serum-containing medium (human prostate cells): able to suppress cell differentiation by serum; also recorded: allow the cells to bypass differentiation and allow proliferation in vitro

Cc1ccc2c(c1)C(=O)C1(O)CCN(c3ccccc3)C1=N2 (stereo not shown) [Blebbistatin]
suppression of serum-induced differentiation / proliferation in serum-containing medium (human prostate cells): able to suppress cell differentiation by serum | suppression of serum-induced differentiation / proliferation in serum-containing medium (human prostate cells; listed as blebbistatin): allow the cells to bypass differentiation and allow proliferation in vitro

C[C@H]1[C@H](OC(=O)CCC(=O)O)O[C@@H]2O[C@@]3(C)CC[C@H]4[C@H](C)CC[C@@H]1[C@@]24OO3 [artesunate]
killing of cervical cancer cells [3]: able to efficiently kill

O=S(=O)(c1cccc2c(O)nccc12)N1CCCNCC1 [HA-1100]
suppression of serum-induced differentiation / proliferation in serum-containing medium (human prostate cells): able to suppress cell differentiation by serum

CN(Cc1cnc2nc(N)nc(N)c2n1)c1ccc(C(=O)N[C@@H](CCC(=O)O)C(=O)O)cc1 [Methotrexate]
outcome of earlier treatment [2]: failed

O=S(=O)(c1cccc2cnccc12)N1CCCNCC1 [Fasudil]
suppression of serum-induced differentiation / proliferation in serum-containing medium (human prostate cells): able to suppress cell differentiation by serum | effect of inhibition on airway epithelial cells (airway epithelial cells): induces membrane ruffling, loss of actin stress fibers and apoptosis

C[C@H]1[C@@H](O)O[C@@H]2O[C@@]3(C)CC[C@H]4[C@H](C)CC[C@@H]1[C@@]24OO3 [DHA]
sensitivity of tumor cells compared with normal lung cells [1]: approximately 100 fold | killing of cervical cancer cells [3]: able to efficiently kill

O=C(CCCCCCC(=O)Nc1ccccc1)NO [SAHA]
sensitivity of tumor cells compared with normal lung cells [1]: approximately 100 fold | LD50 (normal lung cells): approximately 200 μM | lesions in more recent CT scan [4]: all lesions had stabilized | lesions in subsequent CT scan [4]: no new lesions were identified, smaller lesions were shrinking, and some larger lesions were also decreasing in size | side effects [4]: no major side effects had been observed

C[C@@H](N)[C@H]1CC[C@H](C(=O)Nc2ccncc2)CC1 [Y-27632]
suppression of serum-induced differentiation / proliferation in serum-containing medium (human prostate cells): able to suppress cell differentiation by serum | growth (population doublings) with feeder cells in F medium plus ROCK inhibitor [5, 7]: have continued to grow | growth (population doublings) on addition of ROCK inhibitor to synthetic medium ([5]; PrEGM synthetic serum-free medium, 10 μM, no feeders): did not affect growth | growth (population doublings) with feeder cells in F medium plus ROCK inhibitor [6, 7]: have continued to grow | growth (population doublings) on addition of ROCK inhibitor to synthetic medium ([6]; MEGM synthetic serum-free medium, 10 μM, no feeders): did not affect growth | effect of inhibition on airway epithelial cells (airway epithelial cells): induces membrane ruffling, loss of actin stress fibers and apoptosis

CC1=C(C(=O)Nc2cc3cn[nH]c3cc2F)C(c2ccc(C(F)(F)F)cc2)CC(=O)N1 (stereo not shown) [GSK429286]
suppression of serum-induced differentiation / proliferation in serum-containing medium (human prostate cells): able to suppress cell differentiation by serum
